Experiments:
Assay type in all cases: in vivo
[1] = test system: Diabrotica Balteata (Corn Root Worm); assay: Example B1: Diabrotica balteata (corn root worm), maize sprouts sprayed, L2 larvae; details: 96 h, application rate of 200 ppm, 4 days after infestation, L2 larvae, read-out: control in at least one of the two categories (mortality or growth inhibition)
How it was run: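 Spray test: maize sprouts on agar, aqueous dilutions of 10′000 ppm DMSO stock; after drying, 6–10 L2 larvae/well. Read-out at 4 d post-infestation: mortality and growth inhibition vs untreated.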

[2] = test system: Myzus persicae (Green Peach Aphid); assay: Example B6: Myzus persicae (green peach aphid) intrinsic activity, sucrose solution; details: 120 h, test rate of 12 ppm, 5 days after infestation, intrinsic activity, read-out: mortality
How it was run: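 Mortality was read 5 days after infestation. Aphids on pea seedlings fed through a stretched Parafilm membrane on inverted 24-well plates containing sucrose solution mixed with test compound, which was diluted from 10′000 ppm DMSO stock.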

[3] = test system: Plutella xylostella (Diamond Back Moth); assay: Example B4: Plutella xylostella (diamond back moth), artificial diet, eggs, 24-well; details: 192 h, application rate of 200 ppm, 8 days after infestation, eggs, read-out: control in at least one of the two categories (mortality or growth inhibition)
Procedure: 24-well microtiter plates with artificial diet were treated with aqueous test solutions prepared from 10′000 ppm DMSO stock solutions by pipetting. After drying, Plutella eggs were pipetted through a plastic stencil onto a gel blotting paper and the plate was closed with it. The samples were assessed for mortality and growth inhibition in comparison to untreated samples 8 days after infestation.

[4] = test system: Spodoptera littoralis (Egyptian Cotton Leaf Worm); assay: Example B7: Spodoptera littoralis (Egyptian cotton leaf worm), cotton leaf discs sprayed, L1 larvae; details: foliar, 72 h, application rate of 200 ppm, 3 days after infestation, L1 larvae, read-out: control in at least one of the three categories (mortality, anti-feedant effect, or growth inhibition)
How it was run: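 Cotton leaf discs on agar were sprayed with aqueous test solutions made from 10′000 ppm DMSO stocks, dried, then infested with five L1 larvae. Mortality, anti-feeding effect and growth inhibition were scored against untreated discs 3 days after infestation; control means any category exceeds untreated.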

[5] = test system: Euschistus heros (Neotropical Brown Stink Bug); assay: Example B2: Euschistus heros (neotropical brown stink bug), soybean leaves sprayed, N2 nymphs; details: 120 h, application rate of 200 ppm, 5 days after infestation, N2 nymphs, read-out: control in at least one of the two categories (mortality or growth inhibition)
Procedure: Soybean leaves on agar in 24-well microtiter plates were sprayed with aqueous test solutions prepared from 10′000 ppm DMSO stock solutions. After drying the leaves were infested with N2 nymphs. The samples were assessed for mortality and growth inhibition in comparison to untreated samples 5 days after infestation.

[6] = test system: Chilo suppressalis (Striped Rice Stemborer); assay: Example B3: Chilo suppressalis (striped rice stemborer), artificial diet, L2 larvae; details: 144 h, application rate of 200 ppm, 6 days after infestation, L2 larvae, read-out: control in at least one of the three categories (mortality, anti-feedant effect, or growth inhibition)
How it was run: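 First, artificial diet was treated with aqueous solutions prepared from 10'000 ppm DMSO stocks; second, after drying, L2 larvae (6-8/well) were added; third, effects were assessed at 6 days against untreated controls, counting control when any of three categories was higher.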

[7] = test system: Myzus persicae (Green Peach Aphid); assay: Example B5: Myzus persicae (green peach aphid) feeding/contact activity, sunflower leaf discs; details: foliar, 144 h, application rate of 200 ppm, 6 days after infestation
Procedure: Sunflower leaf discs were placed onto agar in a 24-well microtiter plate and sprayed with aqueous test solutions prepared from 10′000 ppm DMSO stock solutions. After drying, the leaf discs were infested with an aphid population of mixed ages. The samples were assessed for mortality 6 days after infestation.

C[C@H](c1ncnn1-c1ccc(C#N)cn1)N(C)c1ncnc2c(C(F)(F)F)cc(Br)cc12 [P.203, 6-[5-[(1R)-1-[[6-bromo-8-(trifluoromethyl)quinazolin-4-yl]-methyl-amino]ethyl]-1,2,4-triazol-1-yl]pyridine-3-carbonitrile]
≥ 80%: percent control (mortality or growth inhibition) at 200 ppm [1] | mortality at 12 ppm [2] | percent control (mortality or growth inhibition) at 200 ppm [3] | percent control (mortality, anti-feedant effect or growth inhibition) at 200 ppm [4] | percent control (mortality or growth inhibition) at 200 ppm [5] | percent control (mortality, anti-feedant effect or growth inhibition) at 200 ppm [6] | mortality at 200 ppm [7]

C[C@@H](c1ncnn1-c1ccc(C#N)cn1)N(C)c1ncnc2c(I)cc(C(F)(F)F)cc12 [P.228, 6-[5-[(1S)-1-[[8-iodo-6-(trifluoromethyl)quinazolin-4-yl]-methyl-amino]ethyl]-1,2,4-triazol-1-yl]pyridine-3-carbonitrile]
≥ 80%: percent control (mortality or growth inhibition) at 200 ppm [1] | mortality at 12 ppm [2] | percent control (mortality or growth inhibition) at 200 ppm [3] | percent control (mortality, anti-feedant effect or growth inhibition) at 200 ppm [4] | percent control (mortality or growth inhibition) at 200 ppm [5] | percent control (mortality, anti-feedant effect or growth inhibition) at 200 ppm [6] | mortality at 200 ppm [7]

CC(c1ncnn1-c1ccc(C#N)cn1)N(C)c1ncnc2c(C(F)(F)F)cc(OC(F)(F)F)cc12 (centres unmarked) [P.221, 6-[5-[1-[methyl-[6-(trifluoromethoxy)-8-(trifluoromethyl)quinazolin-4-yl]amino]ethyl]-1,2,4-triazol-1-yl]pyridine-3-carbonitrile]
≥ 80%: percent control (mortality or growth inhibition) at 200 ppm [1] | mortality at 12 ppm [2] | percent control (mortality or growth inhibition) at 200 ppm [3] | percent control (mortality, anti-feedant effect or growth inhibition) at 200 ppm [4] | percent control (mortality or growth inhibition) at 200 ppm [5] | percent control (mortality, anti-feedant effect or growth inhibition) at 200 ppm [6] | mortality at 200 ppm [7]

C[C@@H](c1ncnn1-c1ccc(C#N)cn1)N(C)c1ncnc2c(C(=O)C3CC3)cc(C(F)(F)F)cc12 [P.227, 6-[5-[(1S)-1-[[8-(cyclopropanecarbonyl)-6-(trifluoromethyl)quinazolin-4-yl]-methyl-amino]ethyl]-1,2,4-triazol-1-yl]pyridine-3-carbonitrile]
≥ 80%: percent control (mortality or growth inhibition) at 200 ppm [1] | mortality at 12 ppm [2] | percent control (mortality or growth inhibition) at 200 ppm [3] | percent control (mortality, anti-feedant effect or growth inhibition) at 200 ppm [4] | percent control (mortality or growth inhibition) at 200 ppm [5] | percent control (mortality, anti-feedant effect or growth inhibition) at 200 ppm [6] | mortality at 200 ppm [7]

CCN(c1ncnc2c(C(F)(F)F)cc(C(F)(F)F)cc12)[C@@H](C)c1ncnn1-c1ccc(C#N)cn1 [P.168, 6-[5-[(1S)-1-[[6,8-bis(trifluoromethyl)quina-zolin-4-yl]-ethyl-amino]ethyl]-1,2,4-triazol-1-yl]pyridine-3-carbonitrile]
≥ 80%: percent control (mortality or growth inhibition) at 200 ppm [1] | mortality at 12 ppm [2] | percent control (mortality or growth inhibition) at 200 ppm [3] | percent control (mortality, anti-feedant effect or growth inhibition) at 200 ppm [4] | percent control (mortality or growth inhibition) at 200 ppm [5] | percent control (mortality, anti-feedant effect or growth inhibition) at 200 ppm [6] | mortality at 200 ppm [7]

CC(Nc1ncnc2c(OC(F)(F)F)cc(Br)cc12)c1ncnn1-c1ncccn1 (centres unmarked) [P.248, 6-bromo-N-[1-(2-pyrimidin-2-yl-1,2,4-triazol-3-yl)ethyl]-8-(trifluoromethoxy)quina-zolin-4-amine]
≥ 80%: percent control (mortality or growth inhibition) at 200 ppm [1] | mortality at 12 ppm [2] | percent control (mortality or growth inhibition) at 200 ppm [3] | percent control (mortality, anti-feedant effect or growth inhibition) at 200 ppm [4] | percent control (mortality or growth inhibition) at 200 ppm [5] | percent control (mortality, anti-feedant effect or growth inhibition) at 200 ppm [6] | mortality at 200 ppm [7]

C[C@@H](c1ncnn1-c1ncccn1)N(C)c1ncnc2c(C(F)(F)F)cc(Cl)cc12 [P.23, 6-chloro-N-methyl-N-[(1S)-1-(2-pyrimidin-2-yl-1,2,4-triazol-3-yl)ethyl]-8-(trifluoromethyl)quinazolin-4-amine]
≥ 80%: percent control (mortality or growth inhibition) at 200 ppm [1] | mortality at 12 ppm [2] | percent control (mortality or growth inhibition) at 200 ppm [3] | percent control (mortality, anti-feedant effect or growth inhibition) at 200 ppm [4] | percent control (mortality or growth inhibition) at 200 ppm [5] | percent control (mortality, anti-feedant effect or growth inhibition) at 200 ppm [6] | mortality at 200 ppm [7]

CCN(c1ncnc2c(C(F)(F)F)cc(Cl)cc12)[C@@H](C)c1ncnn1-c1ccc(C#N)cn1 [P.128, 6-[5-[(1S)-1-[[6-chloro-8-(trifluoromethyl)quinazolin-4-yl]-ethyl-amino]ethyl]-1,2,4-triazol-1-yl]pyridine-3-carbonitrile]
≥ 80%: percent control (mortality or growth inhibition) at 200 ppm [1] | mortality at 12 ppm [2] | percent control (mortality or growth inhibition) at 200 ppm [3] | percent control (mortality, anti-feedant effect or growth inhibition) at 200 ppm [4] | percent control (mortality or growth inhibition) at 200 ppm [5] | percent control (mortality, anti-feedant effect or growth inhibition) at 200 ppm [6] | mortality at 200 ppm [7]

C[C@@H](c1ncnn1-c1ncccn1)N(C)c1ncnc2c(OC(F)F)cc(Cl)cc12 [P.90, 6-chloro-8-(difluoromethoxy)-N-methyl-N-[(1S)-1-(2-pyrimidin-2-yl-1,2,4-triazol-3-yl)ethyl]quinazolin-4-amine]
≥ 80%: percent control (mortality or growth inhibition) at 200 ppm [1] | mortality at 12 ppm [2] | percent control (mortality or growth inhibition) at 200 ppm [3] | percent control (mortality or growth inhibition) at 200 ppm [5] | percent control (mortality, anti-feedant effect or growth inhibition) at 200 ppm [6] | mortality at 200 ppm [7]

C[C@@H](c1ncnn1-c1ccc(C(N)=S)cn1)N(C)c1ncnc2c(C(F)(F)F)cc(Cl)cc12 [P.191, 6-[5-[(1S)-1-[[6-chloro-8-(trifluoromethyl)quinazolin-4-yl]-methyl-amino]ethyl]-1,2,4-triazol-1-yl]pyridine-3-carbothioamide]
≥ 80%: percent control (mortality or growth inhibition) at 200 ppm [1] | mortality at 12 ppm [2] | percent control (mortality or growth inhibition) at 200 ppm [3] | percent control (mortality or growth inhibition) at 200 ppm [5] | percent control (mortality, anti-feedant effect or growth inhibition) at 200 ppm [6] | mortality at 200 ppm [7]

CC(c1ncnn1-c1ccc(F)cn1)N(C)c1ncnc2c(C(F)(F)F)cc(Cl)cc12 (centres unmarked) [P.187, 6-chloro-N-[1-[2-(5-fluoro-2-pyridyl)-1,2,4-triazol-3-yl]ethyl]-N-methyl-8-(trifluoromethyl)quinazolin-4-amine]
≥ 80%: percent control (mortality or growth inhibition) at 200 ppm [1] | mortality at 12 ppm [2] | percent control (mortality or growth inhibition) at 200 ppm [3] | percent control (mortality or growth inhibition) at 200 ppm [5] | percent control (mortality, anti-feedant effect or growth inhibition) at 200 ppm [6] | mortality at 200 ppm [7]

Source: US20230002359A1, “PESTICIDALLY ACTIVE FUSED BICYCLIC HETEROAROMATIC COMPOUNDS” (priority 2019, published 2023)
